In patent US20170058314A1, “NOVEL METHODOLOGY FOR IDENTIFYING ANTI-PERSISTER ACTIVITY AND ANTIMICROBIAL SUSCEPTIBILITY FOR BORRELIA BURGDORFERI AND OTHER BACTERIA” (priority 2014, published 2017):
Converted amounts (≈) assume the structure as drawn. “And” between values parts separate entries of the source, which are not always exact repeats. Identical values can stand only once.

Assays:
[1] = tested on: S. aureus; settings: Zhu et al., 2005; cited from earlier work
[2] = tested on: stationary phase B. burgdorferi persisters (strain B31); test: SYBR Green I/PI viability assay (plate reader), FDA-approved drug library screen
[3] = tested on: stationary phase B. burgdorferi persisters (strain B31); test: epifluorescence microscope counting after SYBR Green I/PI staining, FDA drug screen
[4] = tested on: S. aureus USA300; test: MIC by broth microdilution (OD600) and SYBR Green/PI; format: cell-based; settings: Staphylococcus aureus; S. aureus USA300, overnight incubation
[5] = tested on: S. aureus strains (Newman, USA300, CA-409, CA-127, NY-315); test: Rapid SYBR Green/PI antibiotic susceptibility test; format: cell-based, Staphylococcus aureus; settings: for cut-off (averaged proportion of killed cells) for resistant strains / cut-off (averaged proportion of killed cells) for susceptible strains: 100 μg/mL, 1.5 hours
[6] = tested on: stationary phase B. burgdorferi persisters (strain B31); settings: drug alone; cited from earlier work
[7] = tested on: round body form of B. burgdorferi; test: SYBR Green I/PI assay on amoxicillin-induced round body form; settings: for viability at 50 µM: Borreliella burgdorferi, 168 h, read-out: Residual viable cells (SYBR Green I/PI assay); for Ratios of green/red fluorescence, Primary screening / Ratios of green/red fluorescence, Rescreening (first column) / Ratios of green/red fluorescence, Rescreening (second column): round body form, 50 μM, 7 days
[8] = tested on: B. burgdorferi (growing, strain B31); test: MIC determination, standard microdilution method; format: cell-based, Borrelia burgdorferi; settings: Borreliella burgdorferi; growing B. burgdorferi; read-out: MIC
[9] = tested on: B. burgdorferi; settings: after 72 h; Kraiczy et al., 2001; cited from earlier work
[10] = tested on: E. coli W3110; test: MIC by broth microdilution (OD600) and SYBR Green/PI; format: cell-based; settings: Escherichia coli; E. coli W3110, overnight incubation
Text: The Kirby-Bauer disk diffusion assay was used to determine the susceptibility of the various strains to antibiotics. Instructions and also interpretation of zone diameters were made using the established standards as listed in the Clinical and Laboratory Standards Institute (CLSI). Briefly, bacterial cultures were adjusted to a 0.5 McFarland turbidity standard and spread onto Mueller-Hinton agar. Paper Disks were impregnated onto the agar and the antibiotics at concentrations recommended by CLSI were pipetted onto each blank disk and allowed to air dry for 10 minutes. The plates were incubated at 37° C. overnight before the zone of inhibition was measured in millimeters. […]
The staining dye for Staphylococcus aureus, Escherichia coli, Acinetobacter baumanii, and Mycobacterium tuberculosis were made by mixing SYBR Green I to propidium iodide (1:3) in 100 μl distilled H2O. […] The green and red fluorescence intensity was detected using a Synergy H1 microplate reader by Bio Tek Instruments (VT, USA) at excitation wavelength of 485 nm, 538 nm (green emission), and 612 nm (red emission). The percentage of live cells in each sample was determined by a regression equation generated by a standard curve. […] The staining mixture was added to each sample and the green/red fluorescent ratios were measured as described above. […]

[11] = tested on: E. coli strains (W3110, UTI89, CFT073, KTE181); test: Rapid SYBR Green/PI antibiotic susceptibility test; format: cell-based, Escherichia coli; settings: for percent killed, sensitive strain W3110: others 25 μg/mL
[12] = tested on: E. coli UTI89 persisters; test: Persister assay (CFU enumeration and SYBR Green/PI); format: cell-based, Escherichia coli; settings: ampicillin 100, ofloxacin 5, polymycin B 10, gentamicin 20 μg/mL
Method: Stationary phase cultures of E. coli UTI89 were treated with ofloxacin (5 μg/mL) for 4 hours to enrich for persisters, followed by drug exposure with different antibiotics including ampicillin (100 μg/mL), ofloxacin (5 μg/mL), polymycin B (10 μg/mL) and gentamicin (20 μg/mL). The bacterial viability was determined by CFU enumeration and SYBR Green/PI assay as described above.

[13] = tested on: K. pneumoniae (Isolate 7); test: Rapid SYBR Green/PI antibiotic susceptibility test, 30 minutes; format: cell-based, Klebsiella pneumoniae; settings: 25 μg/mL
[14] = tested on: M. tuberculosis H37Ra; format: cell-based, Mycobacterium tuberculosis; settings: pH 5.9
[15] = tested on: stationary phase B. burgdorferi persisters (strain B31); test: NCI compound library screen, SYBR Green I/PI assay (plate reader); settings: Borreliella burgdorferi, 168 h, read-out: Residual viable cells (SYBR Green I/PI assay)
[16] = tested on: stationary phase B. burgdorferi persisters (strain B31); test: NCI compound library rescreen, epifluorescence microscope counting; settings: Borreliella burgdorferi, 168 h
[17] = tested on: log phase and stationary phase B. burgdorferi culture; test: Antibiotic exposure assay, SYBR Green I/PI (drugs alone and combinations); settings: Borreliella burgdorferi, 168 h, read-out: Live Cell % (residual viable B. burgdorferi), ten-day-old stationary phase culture enriched with micro-colonies, 10 μg/mL each drug, 7 days
Summary of the method: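 Stationary-phase or round-body B. burgdorferi exposed 7 days at 33 °C to drugs alone or combined at 10 μg/mL each (single-compound screen: 50 μM final). Viability by SYBR Green I/PI, ex 485, em 535/635 nm; percent live from regression of green/red ratio, corrected by direct microscopy counting.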

[18] = tested on: B. burgdorferi log and stationary phase cultures; test: epi-fluorescence microscope counting after antibiotic exposure (persister frequency, planktonic forms); format: cell-based, Borrelia burgdorferi
Method: Specimens were examined on a Nikon Eclipse E800 microscope equipped with differential interference contrast (DIC) and epi-fluorescence illumination, and recorded with a Spot slider color camera. Cell proliferation assays were performed by direct counting using a bacterial counting chamber (Hausser Scientific Partnership) and DIC microscopy. SYBR Green I/PI assay was performed to assess the viability of B. burgdorferi. The ratio of live (green) and dead (red) B. burgdorferi was calculated by counting these cells using a bacterial counting chamber and epi-fluorescence microscopy. The three representative images of every sample were captured for quantitative analysis. Image Pro-Plus software was applied for measuring the biomass (fluorescence intensity) of different forms (spirochetes, round body, and microcolony) of B. burgdorferi as previously described (Shopov and Williams, 2000).
To qualitatively determine the effect of antibiotics, 10 μL of each compound from the pre-diluted plate or pre-diluted stock was added to stationary phase B. burgdorferi culture in the 96-well plate. The final volume per well was adjusted to 100 μL at a concentration of 10 μg/mL for each antibiotic. Plates were sealed and placed in a 33° C. incubator for 7 days. The SYBR Green I/PI viability assay was used to assess the live and dead cells after antibiotic exposure as described (Feng, Wang, Shi, et al., 2014). Briefly, 10 μL of SYBR Green I (10,000×stock, Invitrogen) was mixed with 30 μL propidium iodide (PI, 20 mM) into 1.0 mL of sterile dH2O. Then, 10 μL of staining mixture was added to each well and mixed thoroughly. The plates were incubated at room temperature in the dark for 15 minutes followed by plate reading at excitation wavelength at 485 nm and the fluorescence intensity at 535 nm (green emission) and 635 nm (red emission) in microplate reader (HTS 7000 plus Bio Assay Reader, PerkinElmer Inc., USA). With least-square fitting analysis, the regression equation and regression curve of the relationship between percentage of live bacteria and green/red fluorescence ratios was obtained. The regression equation was used to calculate the percentage of live cells in each well of the 96-well plate.
Therefore, the frequency of B. burgdorferi persisters in log phase and stationary phase cultures was assessed using the SYBR Green I/PI viability assay after exposure of the cultures to antimicrobials. E. coli culture was used as a control after exposure to antibiotics to validate the SYBR Green I/PI viability assay for persister frequency assessment.

[19] = 30 minutes, ampicillin 100 μg/mL
[20] = ampicillin, streptomycin 100 μg/mL, trimethoprim 5 μg/mL
[21] = 50 μM, 7 days, stationary phase

SMILES: COc1cccc2c1C(=O)c1c(O)c3c(c(O)c1C2=O)C[C@@](O)(C(=O)CO)C[C@@H]3O[C@H]1C[C@H](N)[C@H](O)[C@H](C)O1 [doxorubicin]
- MIC against S. aureus [1]: 0.12 to 0.5 µg/mL
- activity against stationary phase B. burgdorferi (words; SYBR Green I/PI assay) ([2]; FDA drug screen): very high activity
- bactericidal activity by microscopic counting ([3]; FDA drug screen): no bactericidal activity

SMILES: O=C(N[C@H](CO)[C@H](O)c1ccc([N+](=O)[O-])cc1)C(Cl)Cl [chloramphenicol]
- MIC [4]: 4 µg/mL (≈ 12.4 µM)
- cut-off (averaged proportion of killed cells) for resistant strains [5]: −0.1
- cut-off (averaged proportion of killed cells) for susceptible strains [5]: −0.5

SMILES: Cc1ccc(C(C)C)c(O)c1 [Thymol]
- residual live cell percentage, stationary phase, previous drug screen [6]: 82%
- viability at 50 µM [7]: 34%
- Ratios of green/red fluorescence, Primary screening [7]: 6.15
- Ratios of green/red fluorescence, Rescreening (first column) [7]: 6.36
- Ratios of green/red fluorescence, Rescreening (second column) [7]: 6.36

SMILES: O=C(O)c1cn(C2CC2)c2cc(N3CCNCC3)c(F)cc2c1=O [Ciprofloxacin]
- MIC [8]: 0.8 to 1.6 µg/mL (≈ 2.41 to 4.83 µM)
- cut-off (averaged proportion of killed cells) for resistant strains [5]: −0.1
- cut-off (averaged proportion of killed cells) for susceptible strains [5]: −0.3
- percent killed, resistant strain CA-409 ([5]; 30 minutes, kanamycin 25, ciprofloxacin 50, gentamicin 400 μg/mL): 21%
- percent killed, sensitive Newman strain ([5]; 30 minutes, kanamycin 25, erythromycin 400, ciprofloxacin 50, gentamicin 400 μg/mL): 58%
- MBC [9]: 16 μg/mL and 41.5 μM

SMILES: CC1(C)S[C@@H]2[C@H](NC(=O)[C@H](N)c3ccccc3)C(=O)N2[C@H]1C(=O)O [ampicillin]
- MIC [10]: 8 µg/mL
- percent killed, sensitive strain UTI89 [11, 19]: 23%
- percent killed, sensitive strain W3110 [11, 19]: 38%
- percent killed, resistant strain KTE181 ([11]; 30 minutes, ampicillin 100, trimethoprim 25, streptomycin 25 μg/mL): 1%
- cut-off (averaged proportion of killed cells) for resistant strains [11, 20]: -0.1
- cut-off (averaged proportion of killed cells) for susceptible strains [11, 20]: −0.5
- level of persisters over 7 days (words; CFU and SYBR Green/PI) [12]: stayed constant

SMILES: CO/N=C(\C(=O)N[C@@H]1C(=O)N2C(C(=O)O)=C(COC(C)=O)CS[C@H]12)c1csc(N)n1 [cefotaxime]
- percent killed, sensitive strain W3110 [11, 19]: 24%
- killing of resistant K. pneumoniae strain [13]: not killed at all

SMILES: NC(=O)c1cnccn1 [PZA, pyrazinamide]
- susceptibility of parent strain H37Ra [14]: susceptible

SMILES: COc1cccc2c1C(=O)c1c(O)c3c(c(O)c1C2=O)C[C@@](O)(C(C)=O)C[C@@H]3OC1CC(N)C(O)C(C)O1.Cl (some centres unmarked) [NSC82151, Daunorubicin hydrochloride]
- MIC [8]: ≤ 0.35 µg/mL
- MIC against S. aureus [1]: 8 to 32 µg/mL
- viability at 50 µM [15]: 0%
- viability at 50 µM ([16]; read-out: Activity against persisters (residual viable cell percentage)): 10%
- viability at 50 µM ([16]; read-out: Residual viable cells (epifluorescence microscope counting)): 10%

SMILES: CO/N=C(\C(=O)N[C@@H]1C(=O)N2C(C(=O)O)=C(CSc3nc(=O)c(=O)[nH]n3C)CS[C@H]12)c1csc(N)n1 [Ceftriaxone]
- viability at 10 µg/mL [17]: 68%
- persister frequency (percentage of live cells after antibiotic treatment, in brackets) ([18]; 3-day log phase culture): (5.8%)
- persister frequency (in brackets) ([18]; 7-day stationary phase culture): (16%)
- persister frequency (in brackets) ([18]; 10-day stationary phase culture): (~25%)
- percent killed, sensitive strain W3110 [11, 19]: 37%
- killing of resistant K. pneumoniae strain [13]: not killed at all
- viability at 50 µM [7]: 36%
- Ratios of green/red fluorescence, Primary screening [7]: 6.37
- Ratios of green/red fluorescence, Rescreening (first column) [7]: 6.29
- Ratios of green/red fluorescence, Rescreening (second column) [7]: 6.39
- Ratio of Green/Red fluorescence, Primary screening [2, 21]: 6.74
- Ratio of Green/Red fluorescence, Rescreening (first column) [2, 21]: 6.89
- Ratio of Green/Red fluorescence, Rescreening (second column) [2, 21]: 6.78
- viability at 50 µM ([2]; Borreliella burgdorferi, 168 h, read-out: Residual viable cells (regression equation, SYBR Green I/PI assay)): 44%
- viability at 50 µM ([3]; Borreliella burgdorferi, 168 h, read-out: Residual viable cells (epifluorescence microscope counting)): 50%
